These are literature values, as cited in patent US20160338997A1, “KELOID REDUCTION USING TOPICAL ALLANTOIN” (Scioderm, Inc., priority 2013, published 2016).

The conditions of this series: emulsion pH 6.8 to 7.5; with time and in accelerated stability tests at 40° C.

With `NC(=O)NC1NC(=O)NC1=O` (stereo not shown) [allantoin], the degradation of allantoin entry is listed as “degrades significantly”.
